Data taken from paper PMC2996141 (Journal of chemical information and modeling, 2010).
Entries after “also recorded” stand apart in the source; their conditions may differ. Read-outs that look alike come from different tables or passages of the source.

How the values were obtained:
[1] = tested on: cell growth; settings: cited from earlier work
[2] = tested on: microtubules (taxoid site); assay: Inhibition of [^3H]paclitaxel binding to microtubules; parameters: species or system Bovine; settings: for % inhibition ± SD, radiolabeled ligand [^3H]paclitaxel: 2.0 µM tubulin as microtubules, radiolabeled ligand 4.0 µM, inhibitor 20 µM
[3] = target: microtubules (laulimalide/peloruside A site) (Bos taurus, UniProt Q6B856); assay: Inhibition of [^3H]peloruside A binding to microtubules; parameters: species or system Bovine; settings: for inhibition at 20 µM: read-out: % inhibition ± SD, radiolabeled ligand [^3H]peloruside A; for % inhibition ± SD, radiolabeled ligand [^3H]peloruside A: 2.0 µM tubulin as microtubules, radiolabeled ligand 4.0 µM, inhibitor 20 µM; for type of inhibition of [^3H]peloruside A binding: Hanes analysis; for Ki: read-out: apparent Ki, inhibition of [^3H]peloruside A binding, Dixon analysis, competitive
microtubules (laulimalide/peloruside A site), sequence (Q6B856 whole entry): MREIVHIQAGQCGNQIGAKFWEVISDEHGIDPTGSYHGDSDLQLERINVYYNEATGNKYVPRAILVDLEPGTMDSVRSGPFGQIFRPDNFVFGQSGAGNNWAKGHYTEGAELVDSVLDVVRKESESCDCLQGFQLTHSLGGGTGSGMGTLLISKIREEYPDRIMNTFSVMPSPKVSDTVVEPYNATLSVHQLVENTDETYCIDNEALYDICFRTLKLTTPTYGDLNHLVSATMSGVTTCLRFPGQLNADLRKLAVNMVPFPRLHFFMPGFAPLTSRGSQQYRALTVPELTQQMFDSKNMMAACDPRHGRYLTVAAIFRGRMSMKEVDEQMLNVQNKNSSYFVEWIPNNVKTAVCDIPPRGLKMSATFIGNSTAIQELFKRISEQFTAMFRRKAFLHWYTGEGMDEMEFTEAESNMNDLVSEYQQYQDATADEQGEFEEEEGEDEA
microtubules (laulimalide/peloruside A site), sequence (P81947 whole entry partner): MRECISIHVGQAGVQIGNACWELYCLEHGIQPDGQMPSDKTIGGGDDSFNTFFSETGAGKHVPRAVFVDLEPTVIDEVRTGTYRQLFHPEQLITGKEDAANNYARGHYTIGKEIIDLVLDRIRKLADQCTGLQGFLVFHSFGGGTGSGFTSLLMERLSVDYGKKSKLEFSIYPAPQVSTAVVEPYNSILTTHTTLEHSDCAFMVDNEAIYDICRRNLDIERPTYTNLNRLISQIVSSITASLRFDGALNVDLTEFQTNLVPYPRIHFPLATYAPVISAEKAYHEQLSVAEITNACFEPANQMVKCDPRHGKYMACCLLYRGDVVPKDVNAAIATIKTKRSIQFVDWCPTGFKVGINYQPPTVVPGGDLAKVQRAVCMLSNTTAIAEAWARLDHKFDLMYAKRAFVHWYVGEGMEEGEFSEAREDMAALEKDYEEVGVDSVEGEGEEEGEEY

[4] = target: T1, tubulin polymer (microtubules) (Bos taurus, UniProt Q6B856); assay: Binding of [^3H]paclitaxel to preformed tubulin polymer, Scatchard analysis; parameters: species or system Bovine
T1 sequence (Q6B856 whole entry): as the sequence (Q6B856 whole entry) above
T1 sequence (P81947 whole entry partner): as the sequence (P81947 whole entry partner) above

[5] = target: T1, tubulin polymer (microtubules); assay: Binding of [^3H]peloruside A to preformed tubulin polymer, Scatchard analysis; parameters: species or system Bovine

| Compound | ability to inhibit [^3H]paclitaxel binding [2] | % inhibition ± SD, radiolabeled ligand [^3H]paclitaxel [2] | ability to inhibit [^3H]peloruside A binding (words) [3] | inhibition at 20 µM [3] | other results |
| --- | --- | --- | --- | --- | --- |
| C=C1C[C@H](C)C[C@@H]2CC=C[C@@H](C/C=C\C(=O)O[C@@H](/C=C/[C@@H]3CC(C)=CCO3)[C@@H](O)C[C@@H]3O[C@H]3[C@@H](O)C1)O2 [compound 13, neolaulimalide] |  |  |  |  | activity in cells and with tubulin relative to laulimalide ([1]; ref Gollner et al. 41): equivalent to that of laulimalide |
| C=C/C=C\[C@H](C)[C@H](OC(N)=O)[C@@H](C)[C@H](O)[C@@H](C)C/C(C)=C\[C@H](C)[C@@H](O)[C@@H](C)/C=C\[C@@H](O)C[C@@H]1OC(=O)[C@H](C)[C@@H](O)[C@H]1C [discodermolide] | strong inhibitors | 87 ± 2% | essentially no ability to inhibit; also recorded: little activity | 5 ± 2% |  |
| C/C(=C\c1csc(C)n1)[C@@H]1C[C@@H]2O[C@]2(C)CCC[C@H](C)[C@H](O)[C@@H](C)C(=O)C(C)(C)[C@@H](O)CC(=O)O1 [epothilone B] | strong inhibitors | 79 ± 5% | essentially no ability to inhibit; also recorded: little activity | 2.2 ± 5% |  |
| C=C1C[C@H](C)C[C@@H]2CC=C[C@@H](C/C=C\C(=O)O[C@H]([C@@H](O)/C=C/[C@@H]3CC(C)=CCO3)C[C@@H]3O[C@H]3[C@@H](O)C1)O2 [laulimalide] | essentially inactive | 1.7 ± 5% | inhibitory; also recorded: potent competitive inhibitor |  | % inhibition ± SD, radiolabeled ligand [^3H]peloruside A [3]: 90 ± 0.1%; type of inhibition of [^3H]peloruside A binding [3]: competitive inhibitor; Ki [3]: 0.25 µM |
| CC(=O)O[C@H]1C(=O)[C@@]2(C)[C@H]([C@H](OC(=O)c3ccccc3)[C@]3(O)C[C@H](OC(=O)[C@H](O)[C@@H](NC(=O)c4ccccc4)c4ccccc4)C(C)=C1C3(C)C)[C@]1(OC(C)=O)CO[C@@H]1C[C@@H]2O [paclitaxel] |  |  | little activity | 6.8 ± 0.5% | ability to inhibit [^3H]peloruside A binding (words) ([3]; listed as Paclitaxel): essentially no ability to inhibit; Kd [4]: 240 nM |
| CC[C@@H](/C=C(/C)[C@H]1C[C@H](OC)C[C@@H](O)C(C)(C)[C@]2(O)O[C@H](C[C@H](OC)[C@@H](O)C(=O)O1)C[C@H](OC)[C@@H]2O)CO [peloruside A] |  | 5.1 ± 6% |  |  | number of binding sites per tubulin αβ-dimer in microtubules [5]: one binding site |
| CC[C@H](/C=C(/C)[C@@H]1C[C@@H](OC)C[C@H](O)C(C)(C)[C@@]2(O)O[C@@H](C[C@@H](O)[C@H](O)C(=O)O1)C[C@@H](OC)[C@H]2O)CO [peloruside B] |  |  |  |  | cytotoxicity relative to peloruside A [1]: about three-fold less cytotoxic |
| (11-R)-peloruside A | essentially inactive | 0 ± 8% | inhibitory |  | % inhibition ± SD, radiolabeled ligand [^3H]peloruside A [3]: 49 ± 1%; type of inhibition of [^3H]peloruside A binding [3]: competitive inhibitors; Ki [3]: 9.3 µM |
